# Measurements reported in ChEMBL document CHEMBL3120157, “Structures and solution conformational dynamics of stylissamides G and H from the Bahamian sponge Stylissa caribica” (J Nat Prod, 2014).
# Residues, ends and D or L forms follow the SMILES beside them.
# Tested on: HCT-116
# Experiment: Cytotoxicity against human HCT116 cells assessed as cell viability by MTS assay
# Assay type: functional, cell-based
row,SMILES,EC50
1,CC[C@H](C)[C@@H]1NC(=O)[C@H](CC(C)C)NC(=O)[C@@H]2CCCN2C(=O)[C@H](Cc2ccccc2)NC(=O)[C@@H]2CCCN2C(=O)[C@H](Cc2ccccc2)NC(=O)[C@@H]2CCCN2C1=O (cyclo(FPFPLIP)),> 200 µM
2,CC[C@H](C)[C@@H]1NC(=O)[C@@H]2CCCN2C(=O)[C@H](Cc2c[nH]c3ccccc23)NC(=O)[C@@H]2CCCN2C(=O)[C@H](C(C)C)NC(=O)[C@H](Cc2ccccc2)NC(=O)[C@H](CO)NC1=O (cyclo(FVPWPIS)),5.7 µM
